The text below walks through data of ChEMBL document CHEMBL1151244, “Synthesis of A-seco derivatives of betulinic acid with cytotoxic activity” (J Nat Prod, 2004).

What is called IC50 is the point on the concentration scale where inhibition reaches its midpoint.

Holding throughout (format): functional, cell-based
For assay [1], the system named is K562. As to the kind of experiment: Cytotoxicity against human K562 cells after 72 hrs by MTT assay. The conditions noted are these: K562, 72 h. In general terms: Formazan colour is commonly taken as a measure of viable cells.
The test system of a further assay is CCRF-CEM. In words: Cytotoxicity against human CEM cells after 72 hrs by MTT assay.
Assay [2] relates to K562. As to the kind of experiment: Cytotoxicity against paclitaxel-resistant human K562 cells after 72 hrs by MTT assay. As to conditions: K562, 72 h.
The subject of a further assay is PC-3. In words: Cytotoxicity against human PC3 cells after 72 hrs by MTT assay. The conditions noted are these: PC-3, 72 h.
Another assay has as its system HT-29. As to the kind of experiment: Cytotoxicity against human HT-29 cells after 72 hrs by MTT assay. As to conditions: HT-29, 72 h.
The test system of a further assay is DU-145. In words: Cytotoxicity against human DU145 cells after 72 hrs by MTT assay. As to conditions: DU-145, 72 h.
For a further assay, the system named is A549. As to the kind of experiment: Cytotoxicity against human A549 cells after 72 hrs by MTT assay. As to conditions: A549, 72 h.
The next assay has as its system SK-MEL-2. In words: Cytotoxicity against human SK-MEL-2 cells after 72 hrs by MTT assay. The conditions noted are these: SK-MEL-2, 72 h.
In another assay the test system is MCF7. As to the kind of experiment: Cytotoxicity against human MCF7 cells after 72 hrs by MTT assay. The conditions noted are these: MCF7, 72 h.

On to `C=C(C)[C@@H]1CC[C@]2(C(=O)O)CC[C@]3(C)[C@H](CC[C@@H]4[C@@]5(C)CC[C@H](OC(C)=O)C(C)(C)[C@@H]5CC[C@]43C)[C@@H]12`, for which the IC50 in the assay with K562 [1] is 18 µM; in the assay on CCRF-CEM, 200 µM; in the assay with K562 [2], 19 µM; with PC-3 it was 17 µM; in the assay on HT-29, 24 µM.

Turning to `C=C(C)[C@@H]1CC[C@]2(C(=O)OC(C)=O)CC[C@]3(C)[C@H](CC[C@@H]4[C@@]5(C)CC[C@H](OC(C)=O)C(C)(C)[C@@H]5CC[C@]43C)[C@@H]12`, the IC50 was 88 µM in the assay with K562 [1]; 22 µM in the assay with CCRF-CEM; 108 µM in the assay on K562 [2]; 93 µM in the assay with PC-3; 110 µM with HT-29.

In the case of `C=C(C)[C@@H]1CC[C@]2(C(=O)OC(C)=O)CC[C@]3(C)[C@H](CC[C@@H]4[C@@]5(C)CC(=O)OC(=O)C(C)(C)[C@@H]5CC[C@]43C)[C@@H]12`, in the assay with CCRF-CEM, the IC50 was determined as 6 µM.

On to `C=C(C)[C@@H]1CC[C@]2(COC(C)=O)CC[C@]3(C)[C@H](CC[C@@H]4[C@@](C)(CCOC(C)=O)[C@H](C(C)(C)COC(C)=O)CC[C@]43C)[C@@H]12`, for which, in the assay with CCRF-CEM, it took 250 µM to reach half-maximal inhibition (IC50).

`C=C(C)[C@@H]1CC[C@]2(C(=O)OC)CC[C@]3(C)[C@H](CC[C@@H]4[C@@]5(C)C=C(OC(C)=O)C(=O)C(C)(C)[C@@H]5CC[C@]43C)[C@@H]12`: the IC50 in the assay with K562 [1] came out at 60 µM; in the assay on CCRF-CEM it was 91 µM; with K562 [2], 25 µM; in the assay on PC-3 it was 98 µM; in the assay with HT-29, 46 µM.

Regarding `C=C(C)[C@@H]1CC[C@]2(C(=O)O)CC[C@]3(C)[C@H](CC[C@@H]4[C@@](C)(CC(=O)O)[C@H](C(C)(C)C(=O)O)CC[C@]43C)[C@@H]12`, the IC50 in the assay on K562 [1] worked out at 145 µM; with CCRF-CEM it was 250 µM; with K562 [2] it was 250 µM; in the assay with PC-3, 169 µM; in the assay on HT-29 it was 219 µM.

Take `C=C(C)[C@@H]1CC[C@]2(C(=O)OC)CC[C@]3(C)[C@H](CC[C@@H]4[C@@]5(C)C=C(OC)C(=O)C(C)(C)[C@@H]5CC[C@]43C)[C@@H]12`: the IC50 with K562 [1] came to 11 µM; with CCRF-CEM it was 5 µM; with K562 [2], 10 µM; with PC-3, 20 µM; in the assay with HT-29, 19 µM.

For `C=C(C)[C@@H]1CC[C@]2(C(=O)OC)CC[C@]3(C)[C@H](CC[C@@H]4[C@@]5(C)[C@@H](O)OC(=O)C(C)(C)[C@@H]5CC[C@]43C)[C@@H]12`, the IC50 was 119 µM in the assay with K562 [1]; 250 µM in the assay with CCRF-CEM; 85 µM in the assay with K562 [2]; 116 µM with PC-3; 65 µM in the assay with HT-29.

In the case of `C=C(C)[C@@H]1CC[C@]2(C(=O)OC)CC[C@]3(C)[C@H](CC[C@@H]4[C@@](C)(CC(=O)O)[C@H](C(C)(C)C(=O)O)CC[C@]43C)[C@@H]12`, the IC50 with K562 [1] came to 77 µM; with CCRF-CEM, 113 µM; with K562 [2], 75 µM; in the assay with PC-3 it was 63 µM; in the assay with HT-29 it was 88 µM.

In the case of `C=C(C)[C@@H]1CC[C@]2(CO)CC[C@]3(C)[C@H](CC[C@@H]4[C@@](C)(CCO)[C@H](C(C)(C)CO)CC[C@]43C)[C@@H]12`, the IC50 in the assay on K562 [1] was 9 µM; in the assay on CCRF-CEM, 20 µM; in the assay with K562 [2] it was 11 µM; in the assay on PC-3 it was 49 µM; in the assay with HT-29, 11 µM.

Take `C=C(C)[C@@H]1CC[C@]2(C(=O)O)CC[C@]3(C)[C@H](CC[C@@H]4[C@@]5(C)CC(=O)OC(=O)C(C)(C)[C@@H]5CC[C@]43C)[C@@H]12`: inhibition in the assay on CCRF-CEM was half-maximal at 101 µM (IC50).

In the case of `C=C(C)[C@@H]1CC[C@]2(C(=O)O)CC[C@]3(C)[C@H](CC[C@@H]4[C@@]5(C)C=C(OC(C)=O)C(=O)C(C)(C)[C@@H]5CC[C@]43C)[C@@H]12`, the IC50 is 5 µM in the assay with K562 [1]; 18 µM in the assay with DU-145; 11 µM with A549; 20 µM with CCRF-CEM; 16 µM in the assay with K562 [2]; 11 µM in the assay on PC-3. Besides, the IC50 was 24 µM in the assay with SK-MEL-2, 17 µM in the assay on MCF7 and 7 µM in the assay with HT-29.

As for `C=C(C)[C@@H]1CC[C@]2(C(=O)OC(=O)[C@]34CC[C@@H](C(=C)C)[C@@H]3[C@H]3CC[C@@H]5[C@@]6(C)CC[C@H](OC(C)=O)C(C)(C)[C@@H]6CC[C@@]5(C)[C@]3(C)CC4)CC[C@]3(C)[C@H](CC[C@@H]4[C@@]5(C)CC[C@H](OC(C)=O)C(C)(C)[C@@H]5CC[C@]43C)[C@@H]12`, the IC50 in the assay with K562 [1] was determined as 104 µM; with CCRF-CEM, 240 µM; in the assay on K562 [2] it was 242 µM; with PC-3, 187 µM; with HT-29, 173 µM.

Consider `C=C(C)[C@@H]1CC[C@]2(C(=O)OC)CC[C@]3(C)[C@H](CC[C@@H]4[C@@](C)(CC(=O)OC)[C@H](C(C)(C)C(=O)OC)CC[C@]43C)[C@@H]12`, for which the IC50 stood at 104 µM in the assay with K562 [1]; 250 µM in the assay on CCRF-CEM; 76 µM with K562 [2]; 245 µM in the assay on PC-3; 99 µM with HT-29.

`C=C(C)[C@@H]1CC[C@]2(C(=O)OC)CC[C@]3(C)[C@H](CC[C@@H]4[C@@]5(C)CC[C@H](OC(C)=O)C(C)(C)[C@@H]5CC[C@]43C)[C@@H]12`: the IC50 is 250 µM in the assay on K562 [1]; 16 µM in the assay with CCRF-CEM; 250 µM in the assay with K562 [2]; 250 µM in the assay on PC-3; 250 µM with HT-29.

Regarding `C=C(C)[C@@H]1CC[C@]2(C(=O)O)CC[C@]3(C)[C@H](CC[C@@H]4[C@@]5(C)C=C(O)C(=O)C(C)(C)[C@@H]5CC[C@]43C)[C@@H]12`, the IC50 in the assay on K562 [1] was found to be 6 µM; with DU-145 it was 23 µM; in the assay on A549 it was 10 µM; in the assay with CCRF-CEM, 4 µM; in the assay with K562 [2], 11 µM; with PC-3, 10 µM. Further, the IC50 in the assay with SK-MEL-2 came to 23 µM; with MCF7 it was 14 µM; in the assay on HT-29, 6 µM.

As to `C=C(C)[C@@H]1CC[C@]2(C(=O)OC)CC[C@]3(C)[C@H](CC[C@@H]4[C@@]5(C)CC(=O)OC(=O)C(C)(C)[C@@H]5CC[C@]43C)[C@@H]12`, the IC50 with K562 [1] is 29 µM; in the assay with CCRF-CEM, 7 µM; with K562 [2], 12 µM; in the assay on PC-3, 89 µM; in the assay with HT-29 it was 12 µM.

Consider `C=C(C)[C@@H]1CC[C@]2(C(=O)O)CC[C@]3(C)[C@H](CC[C@@H]4[C@@]5(C)[C@@H](O)OC(=O)C(C)(C)[C@@H]5CC[C@]43C)[C@@H]12`, for which the IC50 was found to be 81 µM in the assay on K562 [1]; 96 µM in the assay with CCRF-CEM; 81 µM in the assay on K562 [2]; 79 µM in the assay with PC-3; 58 µM with HT-29.

`C=C(C)[C@@H]1CC[C@]2(C(=O)OC)CC[C@]3(C)[C@H](CC[C@@H]4[C@@]5(C)C=C(O)C(=O)C(C)(C)[C@@H]5CC[C@]43C)[C@@H]12`: the IC50 with K562 [1] was 8 µM; with DU-145 it was 9 µM; in the assay on A549 it was 11 µM; in the assay with CCRF-CEM, 23 µM; in the assay on K562 [2], 8 µM; with PC-3, 10 µM. Besides, the IC50 worked out at 11 µM in the assay on SK-MEL-2, 6 µM in the assay with MCF7 and 6 µM in the assay on HT-29.

Consider `C=C(C)[C@@H]1CC[C@]2(C(=O)O)CC[C@]3(C)[C@H](CC[C@@H]4[C@@]5(C)CC[C@H](O)C(C)(C)[C@@H]5CC[C@]43C)[C@@H]12` [BETULINIC ACID], for which the IC50 in the assay with K562 [1] is 56 µM; with DU-145 it was 196 µM; with A549 it was 146 µM; with CCRF-CEM, 27 µM; in the assay with K562 [2], 112 µM; in the assay with PC-3, 91 µM. The IC50 was determined as 21 µM in the assay with SK-MEL-2, 143 µM with MCF7 and 89 µM in the assay on HT-29.

In the case of `C=C(C)[C@@H]1CC[C@]2(C(=O)O)CC[C@]3(C)[C@H](CC[C@@H]4[C@@]5(C)CCC(=O)C(C)(C)[C@@H]5CC[C@]43C)[C@@H]12` [BETUNOLIC ACID], the half-inhibitory concentration (IC50) in the assay with DU-145 worked out at 36 µM; in the assay with CCRF-CEM, 17 µM; with K562 [2], 17 µM; in the assay with MCF7 it was 29 µM.

On to `C=C(C)[C@@H]1CC[C@]2(C(=O)OC)CC[C@]3(C)[C@H](CC[C@@H]4[C@@]5(C)CC[C@H](O)C(C)(C)[C@@H]5CC[C@]43C)[C@@H]12` [METHYL BETULINATE], for which the IC50 in the assay on K562 [1] came to 71 µM; with CCRF-CEM it was 150 µM; with K562 [2] it was 65 µM; in the assay on PC-3 it was 109 µM; in the assay with HT-29 it was 61 µM.

On to `C=C(C)[C@@H]1CC[C@]2(C(=O)OC)CC[C@]3(C)[C@H](CC[C@@H]4[C@@]5(C)CCC(=O)C(C)(C)[C@@H]5CC[C@]43C)[C@@H]12` [METHYL BETULONATE], for which the IC50 in the assay with K562 [1] amounted to 239 µM; with K562 [2] it was 250 µM; in the assay on PC-3, 250 µM; with HT-29 it was 250 µM.
